Test results: ChEMBL document CHEMBL3352719 (Bioorg Med Chem, 2014)

Columns and labels:
[1] = cells; settings: Influenza A virus, MDCK, 48 h
[2] = Cytotoxicity against MDCK cells after 48 hrs by CellTiter96 assay; type: cell-based, Canis lupus familiaris; settings: dog
[3] = Cytotoxicity against human 293T cells after 48 hrs by CellTiter96 assay; type: cell-based, HEK-293T

In the case of CCC(CC)O[C@@H]1C=C(C(=O)NO)C[C@H](N)[C@H]1NC(C)=O, the EC50 [1] is reported as 359 nM.
In the case of CCC(CC)O[C@@H]1C=C(C(=O)NOC)C[C@H](N)[C@H]1NC(C)=O, the EC50 [1] is reported as 127 nM.
CCC(CC)O[C@@H]1C=C(C(=O)NOCc2ccccc2)C[C@H](N)[C@H]1NC(C)=O gave an EC50 [1] of 72.4 nM.
Work on CCC(CC)O[C@@H]1C=C(C(=O)NOCCCc2cc3ccccc3[nH]2)C[C@H](N)[C@H]1NC(C)=O yielded an EC50 [1] of 60.1 nM.
With CCC(CC)O[C@@H]1C=C(C(=O)NOC)C[C@H](NC(=N)N)[C@H]1NC(C)=O the CC50 at 48 h [2] was over 100000 nM, the CC50 at 48 h [3] was over 100000 nM and the EC50 [1] was 71.7 nM.
CCC(CC)O[C@@H]1C=C(C(=O)NOCc2ccccc2)C[C@H](NC(=N)N)[C@H]1NC(C)=O gave an EC50 [1] of 23.8 nM.
For CCC(CC)O[C@@H]1C=C(C(=O)NOCCCc2cc3ccccc3[nH]2)C[C@H](NC(=N)N)[C@H]1NC(C)=O, the CC50 at 48 h [2] was over 100000 nM, the CC50 at 48 h [3] was over 100000 nM and the EC50 [1] was 90.7 nM.
CCC(CC)O[C@@H]1C=C(C(=O)NS(C)(=O)=O)C[C@H](N)[C@H]1NC(C)=O gave an EC50 [1] of 401 nM.
In the case of CCC(CC)O[C@@H]1C=C(C(=O)NS(=O)(=O)C(F)(F)F)C[C@H](N)[C@H]1NC(C)=O, the EC50 [1] is reported as 2220 nM.
Work on CCCCS(=O)(=O)NC(=O)C1=C[C@@H](OC(CC)CC)[C@H](NC(C)=O)[C@@H](N)C1 yielded an EC50 [1] of 1980 nM.
In the case of CCC(CC)O[C@@H]1C=C(C(=O)NS(=O)(=O)c2ccccc2)C[C@H](N)[C@H]1NC(C)=O, the EC50 [1] is reported as 7490 nM.
For CCC(CC)O[C@@H]1C=C(C(=O)NS(C)(=O)=O)C[C@H](NC(=N)N)[C@H]1NC(C)=O, the CC50 at 48 h [2] was over 100000 nM, the CC50 at 48 h [3] was over 100000 nM and the EC50 [1] was 59.1 nM.
CCC(CC)O[C@@H]1C=C(C(=O)NS(=O)(=O)C(F)(F)F)C[C@H](NC(=N)N)[C@H]1NC(C)=O showed an EC50 [1] of 484 nM.
CCCCS(=O)(=O)NC(=O)C1=C[C@@H](OC(CC)CC)[C@H](NC(C)=O)[C@@H](NC(=N)N)C1 showed an EC50 [1] of 261 nM.
With CCC(CC)O[C@@H]1C=C(C(=O)NS(=O)(=O)c2ccccc2)C[C@H](NC(=N)N)[C@H]1NC(C)=O the EC50 [1] was 593 nM.
Molecule CCC(CC)O[C@@H]1C=C(C(=O)O)C[C@H](N)[C@H]1NC(C)=O [OSELTAMIVIR CARBOXYLATE] has an EC50 [1] of 28.2 nM.
